Test results as given in patent US6482805B2 (Parker Hughes Institute, priority 1998, dated 2002).

Legend:
[1] = system: binding of human sperm to human zona; assay: Human sperm-zona binding assay (Example 5); assay type: cell-based
Protocol: The human sperm-zona recognition and binding assay appears to predict the in vitro and in vivo fertilization outcome. […] Due to the variable number of sperm binding to human eggs, the sperm-zona binding ratio was used to assess sperm-zona binding capacity.
Following coincubation, the number of tightly bound green (SYBR 14) and blue (SYTO 17) sperm were assessed by laser scanning confocal microscopy. Frozen human eggs (n=46) were thawed and rinsed three times in BWW-0.3% BSA, and in BWW-3.5% BSA, before addition of sperm suspension. […] The first aliquot was incubated with 2.5 μM SYBR 14 (Molecular Probes) and the second aliquot was incubated with 5 μM SYTO 17. Following 30 minutes of incubation, sperm motility was assessed by CASA. Motile sperm with intensely stained green or blue nuclei were washed twice in BWW and one million motile sperm labeled with SYBR 14 (green) and SYTO 17 (blue) were added to dish containing human zona (n=2) under mineral oil and coincubated for 4 hours. Following extensive washing of eggs to dislodge any loosely adherent sperm, the eggs were mounted on glass slides and examined under a BioRad MRC-1024 Laser Scanning Confocal Microscope as described above. Using fluorescence imaging, the fluorescence emission of SYBR-14 and SYTO-17 localized on the sperm head was simultaneously recorded using 598/40 nm, and 680 DF32 emission/filter respectively. Confocal images of Z-sections were obtained using a Nikon […] (NA 1.4) objective and Kalman collection filter. Digitized images were processed with the Adobe Photoshop software and final images were printed using a Fujix Pictography 3000 color printer. The number of tightly bound green and blue-colored sperm nuclei adherent to each human egg were counted from the Z-sections of fluorescence images of each egg on all focal planes and expressed as a binding ratio.

[2] = system: female Swiss (CD-1) mice; assay: Fertility of female mice after artificial insemination with intravaginal application (Example 7); assay type: in vivo, mouse
From the text: Because fertilization in vivo is dependent on successful sperm transport through the female genital tract, we next determined whether exposure of sperm to the WHI-07 in vivo affected the subsequent fertility outcome. Hormonally primed adult female Swiss (CD-1) mice were artificially inseminated with motile epididymal sperm via the cervix with and without prior intravaginal application of WHI-07 in a cream base. Females were examined 8 days later for the presence or absence of embryos in uteri.
More particularly, adult (5-6 months old) female CD-1 mice were superovulated by an intraperitoneal injection (i. p.) of 5 IU of pregnant mare's serum gonadotropin followed by an i.p. injection of 5 IU of human chorionic gonadotropin 46-48 hours later. Mice were randomly assigned to one of the two treatment groups (27 or 24/group); vehicle controls [cream base (Taro Pharmaceuticals, Hawthorne, N.J.) with 1% DMSO], or test group (cream base with 1% WHI-07 in 1% DMSO) and given intravaginally (50 μl) prior to artificial insemination. Caudae epididymal sperm were obtained from proven breeder adult CD-1 male (5-6 months old) [B. Hogan, R. Beddington, F. Costantini, E. Lacy, Eds., Manipulating the Mouse Embryo (Cold Spring Harbor Laboratory Press, Plainview, N.Y., 1994] and suspended in a modified Krebs Ringer-bicarbonate medium (M2; Gibco-BRL) supplemented with pyruvate, lactate, and glucose. Sperm were capacitated in M2 medium-5% BSA for 1 hour prior to use. For each experiment cauda epididymal sperm pooled from 25 male mice and adjusted to 1-2×10^6 motile sperm/50 μl were used for insemination. A 50 μl volume/mouse was ejected through a 1 ml syringe with a blunted 18 gauge needle. Preparations were analyzed for sperm concentration, motility, and sperm motion parameters by CASA using software designed for oval sperm head morphology (Hamilton Thorne). On day 8, individual females representing the control and test group were killed and their uteri were examined for the presence or absence of embryos. A total of three independent fertility experiments were performed.

[3] = system: HIV-1 strain HTLVIIIB; assay: In vitro anti-HIV-1 activity, HTLVIIIB p24 assay in PBMC (Example 9); assay type: cell-based; details: Human immunodeficiency virus 1; HIV-1 replication in PBMC, p24 antigen production
Protocol: The HIV-1 strain, HTLVIIIB, which was propagated in CCRF-CEM cells, was used for in vitro assays of the anti-HIV-1 activity of selected novel WHI-07 analogues. Cell-free supernatants of HTLVIIIB-infected CCRF-CEM cells were harvested, dispensed into 1 ml aliquots, and frozen at −70° C. Titration of stock virus was performed by examining its cytopathic effects in MT-2 cells. [see, Uckun FM, et al., Antimicrob Agents Chemther 1998; 42:383-388]. Normal human peripheral blood mononuclear cells (PBMC) from HIV-negative donors were cultured for 72 h in RPMI 1640 supplemented with 20%(v/v) heat-inactivated fetal bovine serum (FBS), 3% interleukin-2, 2 mM L-glutamine, 25 mM HEPES, 2 g/L NaHCO3, 50 μg/ml gentamicin, and 4 μg/ml phytohemagglutinin prior to exposure to HIV-1 at a multiplicity of infection of 0.1 during a 1 h adsorption period at 37° C. in a humidified 5% CO2 atmosphere. […] Percent viral inhibition was calculated by comparing the p24 values from the drug-treated infected cells with p24 values from untreated infected cells (i.e., virus controls). […] A microculture tetrazolium assay, using 2,3-bis(2-methoxy-4-nitro-5-sulfophenyl)-5-[(phenylamino)-carbonyl]-2H-tetrazolium hydroxide, was performed to quantitate cellular proliferation.

[4] = experiment 1, 27 mice, 1% WHI-07 in cream base intravaginally, day 8
[5] = experiment 2, 27 mice, 1% WHI-07 in cream base intravaginally, day 8
[6] = experiment 3, 24 mice, 1% WHI-07 in cream base intravaginally, day 8
[7] = total of three experiments, 78 mice, p < 0.001 vs control

| Compound | mean sperm-zona binding ratio ([1]; sperm pretreated with 25 μM) | mean sperm-zona binding ratio ([1]; sperm pretreated with 50 μM) | mean sperm-zona binding ratio ([1]; sperm pretreated with 100 μM) | No. of WHI-07-treated mice fertile [2, 4] | WHI-07-treated mice fertile (%) [2, 4] | No. of WHI-07-treated mice fertile [2, 5] | WHI-07-treated mice fertile (%) [2, 5] | No. of WHI-07-treated mice fertile [2, 6] | WHI-07-treated mice fertile (%) [2, 6] | No. of WHI-07-treated mice fertile [2, 7] | WHI-07-treated mice fertile (%) [2, 7] | IC50 [3] |
| --- | --- | --- | --- | --- | --- | --- | --- | --- | --- | --- | --- | --- |
| 5-bromo-6-methoxy-5,6-dihydro-3 ′-azidothymidine-5 ′-(p-methoxyphenyl) methoxyalaninyl phosphate [WHI-05] | 0.18 | 0.07 | 0.10 |  |  |  |  |  |  |  |  |  |
| COC(=O)C(C)NP(=O)(OCC1OC(N2C(=O)NC(=O)C(C)(Br)C2OC)CC1N=[N+]=[N-])Oc1ccc(Br)cc1 (stereo not drawn) [WHI-07, 5-Bromo-6-methoxy-5,6-dihydro-3′-azidothymidine-5′-(p-Bromophenyl Methoxyalaninyl Phosphate)] | 0.088 | 0.039 | 0.009 | 2 | 7.4% | 1 | 3.7% | 3 | 12.5% | 6 | 7.6% | 5 nM |
